# Tested on: Fibroblasts
# Experiment: Production amount of type I collagen by fibroblasts
# Type: cell-based
# Conditions: cultured for two days in DMEM without growth factors; amount without sarcosine set as 100 (FIG. 4)
# Experimental: The production of collagen was measured in the following method. Fibroblasts were plated on 24 wells, and were allowed to stand while culturing until the cells fully adhered. Then, the culture liquid (DMEM supplemented with growth factors) was replaced with a medium (DMEM without growth factors) to which the drug (sarcosine) was added to the desired concentration, and cultured for two days. The culture supernatant was removed, and the production amount of type I collagen was determined using the TAKARA's Procollagen type I-Cppeptide EIA KIT. Cell counts were determined by measuring the amount of DNA using Hoechst and then converting it to a cell count. Finally the production amount of collagen was compared as the production amount of collagen per unit cell.
smiles,measurement,value
CNCC(=O)O [sarcosine],production amount of collagen per unit cell,increases with sarcosine addition in dose dependent manner
